# According to US10993933B2, “Oral dosage forms of bendamustine” (ASTELLAS DEUTSCHLAND GMBH, priority 2010, dated 2021):
# Marks after values point to notes of the source that are not given here.
# Key:
# [1] = Phase 1 crossover study, urine pharmacokinetics (Example 8); format: in vivo, human; details: for % Aeinf / % Aelast / Aeinf / Aelast / CLR: bendamustine in urine, n=11
# Description: Urine pharmacokinetic parameters of bendamustine, M3 and M4 are presented in Table 27, Table 28 and Table 29, respectively. The percentage of the dose excreted in urine unchanged was low (2.6% and 2.1% for oral and intravenous bendamustine, respectively).
# [2] = Phase 1 crossover study, plasma pharmacokinetics after oral and i.v. bendamustine (Example 8)
# Procedure: An open label, randomized two-way crossover study to assess the absolute bioavailability of oral bendamustine in patients with cancer was conducted to assess the absolute bioavailability of bendamustine administered as an oral formulation (example 2). Besides assessing the pharmacokinetics of bendamustine in plasma following oral and i.v. administration, a further objective was to evaluate the safety and tolerability of bendamustine following i.v. and especially oral administration of the formulation of example 2.
# 14 patients who were suffering from multiple myeloma, B-cell type chronic lymphocytic leukemia or advanced indolent non-Hodgkin's lymphoma were enrolled and were treated with bendamustine. […] After signing the informed consent form and following the screening period (days −21 to −2), eligible patients were assigned a patient number which was specific for each study site. Patients were randomized to receive one of the following on day 1 followed by the other on day 8: • a single oral dose of 110.2 mg (2×55.1 mg) bendamustine HCl • a single intravenous dose of 100 mg bendamustine HCl
# Bendamustine was provided a) orally as capsules, a LFHC formulation (liquid-filled, hard-shell capsule) and b) intravenously as a solution after reconstituting a powder for the preparation of a solution for injection. The LFHC formulation (per capsule) was prepared from 55.1 mg bendamustine hydrochloride, 1.2 mg methylparaben, 0.12 mg […], 0.12 mg butylated hydroxytoluene, 10.9 mg ethanol and 532.56 mg CREMOPHOR RH40. The vial with powder for concentrate for solution was the marketed product in Germany (RIBOMUSTINE) which contains per vial 100 mg of bendamustine hydrochloride and mannitol as an excipient. This product was reconstituted with water for injection to a final concentration of 2.5 mg/ml of bendamustine HCl and was further diluted with 0.9% NaCl until about 500 ml before administration to the patient, in accordance with the instructions of the package insert.
# Patients were admitted to the study site for 2 periods; days −1 to 2 (period 1) and days 7 to 9 (period 2). A total of 12 patients was to be randomized to receive treatment. Six patients were to receive treatment with a single oral dose of 110.2 mg (2×55.1 mg) bendamustine HCl (day 1) followed by a single intravenous dose of 100 mg bendamustine HCl (day 8) while 6 other patients were to receive treatment in the alternate order. Patients underwent a washout period of at least 7 days between treatments.
# After oral and intravenous administration of bendamustine the concentration of bendamustine, as well as that of the active metabolites of bendamustine (M3 and M4), were determined in plasma and urine samples on day 1 and day 8. Patients returned to the study site for an end-of-study visit 7 to 14 days after completion of the second treatment period, or after early discharge/withdrawal. Subsequently the pharmacokinetic parameters of bendamustine and its metabolites were calculated.
# [3] = Stability of an aqueous solution of bendamustine as a function of pH; details: pH values higher than about 5
# [4] = Phase 1 crossover study, safety and tolerability (Example 8); format: in vivo, human
# [5] = Bendamustine HCl 100 mg intravenously, mean
# [6] = Bendamustine HCl 100 mg intravenously, median
# [7] = Bendamustine HCl 100 mg intravenously, min-max
# [8] = Bendamustine HCl 110.2 mg orally, mean
# [9] = Bendamustine HCl 110.2 mg orally, median
# [10] = Bendamustine HCl 110.2 mg orally, min-max
smiles,measurement,setting,value
"Cn1c(CCCC(=O)O)nc2cc(N(CCCl)CCCl)ccc21 [bendamustine, 4-[5-[bis(2-chloroethyl)amino]-1-methylbenzimidazo-2-yl]butanoic acid]",% Aeinf,[1]; [5],2.07%
same,% Aelast,[1]; [5],2.07%
same,Aeinf,[1]; [5],1.874 mg
same,Aelast,[1]; [5],1.88 mg
same,% Aeinf,[1]; [6],1.22%
same,% Aelast,[1]; [6],1.23%
same,Aeinf,[1]; [6],1.11 mg
same,Aelast,[1]; [6],1.12 mg
same,% Aeinf,[1]; [7],0.27-8.8%
same,% Aelast,[1]; [7],0.27-8.8%
same,Aeinf,[1]; [7],0.24 to 8.0 mg
same,Aelast,[1]; [7],0.24 to 8.0 mg
same,CLR,[1]; [7],0.06 to 1.4 L/h
same,% Aeinf,[1]; [8],2.64%
same,% Aelast,[1]; [8],2.66%
same,Aeinf,[1]; [8],2.64 mg
same,Aelast,[1]; [8],2.66 mg
same,CLR,[1]; [8],0.788 L/h
same,% Aeinf,[1]; [9],2.23%
same,% Aelast,[1]; [9],2.23%
same,Aeinf,[1]; [9],2.23 mg
same,Aelast,[1]; [9],2.23 mg
same,% Aeinf,[1]; [10],0.40-5.8%
same,% Aelast,[1]; [10],0.40-5.9%
same,Aeinf,[1]; [10],0.40 to 5.8 mg
same,Aelast,[1]; [10],0.40 to 5.9 mg
same,CLR,[1]; [10],0.18 to 2.0 L/h
same,percentage of the dose excreted in urine unchanged,"[1]; patients, intravenous",2.1%
same,F,"[2]; Bendamustine HCl 110.2 mg orally vs 100 mg intravenously, arithmetic mean, n=11",69.0† %
same,CL/F,"[2]; bendamustine in plasma, Bendamustine HCl 110.2 mg orally, mean, n=12",31.7 L/h
same,Mean t1/2,"[2]; patients, intravenous administration",approximately 30 minutes
same,"absolute bioavailability (oral versus intravenous ratio of AUCinf), geometric mean","[2]; patients, oral 110.2 mg LFHC (example 2) vs i.v. 100 mg, 90% CI: 55%, 78%",66%
same,tmax,"[2]; patients, oral administration",approximately 0.95 hours
same,"tmax, individual values","[2]; patients, oral administration",0.25 h and 1.8 h
same,Mean t1/2,"[2]; patients, oral intake",approximately 30 minutes
same,Cmax after oral dosing as % of Cmax after intravenous dosing,"[2]; patients, 90% CI: 32%, 54%",42%
same,stability of an aqueous solution,[3],significant hydrolytic decomposition
same,patients with at least 1 adverse event considered related to study drug,[4]; intravenous dose,no patients
same,patients with treatment-emergent adverse events,"[4]; intravenous treatment, 100 mg",25%
same,safety and tolerability,"[4]; intravenous, single dose 100 mg",safe and well tolerated
same,deaths during the study,[4]; oral and intravenous,No deaths occurred
same,patients with at least 1 adverse event considered related to study drug,[4]; oral dose,29%
same,patients with treatment-emergent adverse events,"[4]; oral treatment, 110.2 mg",43%
same,safety and tolerability,"[4]; oral, single dose 110.2 mg",safe and well tolerated
